Laboratory results taken from US20140243302A1, “BRIDGED BICYCLIC COMPOUNDS FOR THE TREATMENT OF BACTERIAL INFECTIONS” (priority 2011, published 2014).
Converted amounts (≈) assume the structure as drawn. Counter-ions that a name gives are not always drawn.

System: Staphylococcus aureus Smith
Assay: MIC assay, modified agar dilution (CLSI), S. aureus Smith
Format: cell-based
Settings: Staphylococcus aureus, agar dilution, 35° C., 16-20 hr; lowest concentration that completely inhibited growth; read-out: S_aureus_Smith_WT_MIC
Summary of the method: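 Strains were spotted at about 1×10^4 CFU onto compound-containing Mueller Hinton agar (two-fold series, 128-0.001 μg/mL), horse blood 5% added for pneumococcus and enterococcus. MIC read after 16-20 hr at 35 °C, following a modified CLSI agar dilution method.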

MIC | Structure (SMILES)
0.063 µg/mL (≈ 0.129 µM) | N#Cc1ccc2ncc(F)c(CCC34CCC(NCc5ccc6c(n5)NC(=O)CO6)(CC3)CO4)c2n1 [Example 31, 7-Fluoro-8-(2-(4-((3-oxo-3,4-dihydro-2H-pyrido[3,2-b][1,4]oxazin-6-yl)methylamino)-2-oxabicyclo[2.2.2]octan-1-yl)ethyl)-1,5-naphthyridine-2-carbonitrile]
0.25 µg/mL (≈ 0.442 µM) | CCOC(=O)COc1ccc2ncc(F)c(CCC34CCC(NCc5ccc6c(n5)NC(=O)CO6)(CC3)CO4)c2n1 [Example 32, Ethyl 2-(7-Fluoro-8-(2-(4-((3-oxo-3,4-dihydro-2H-pyrido[3,2-b][1,4]oxazin-6-yl)methylamino)-2-oxabicyclo[2.2.2]octan-1-yl)ethyl)-1,5-naphthyridin-2-yloxy)acetate]
0.063 µg/mL (≈ 0.117 µM) | COCCOc1ccc2ncc(F)c(CCC34CCC(NCc5ccc6c(n5)NC(=O)CO6)(CC3)CO4)c2n1 [Example 33, 6-((1-(2-(3-Fluoro-6-(2-methoxyethoxy)-1,5-naphthyridin-4-yl)ethyl)-2-oxabicyclo[2.2.2]octan-4-ylamino)methyl)-2H-pyrido[3,2-b][1,4]oxazin-3(4H)-one]
0.031 µg/mL | Cl.O=C1COc2ccc(CNC34CCC(CCc5c(F)cnc6ccc(OCCO)nc56)(CC3)OC4)nc2N1 [Example 34, 6-((1-(2-(3-Fluoro-6-(2-hydroxyethoxy)-1,5-naphthyridin-4-yl)ethyl)-2-oxabicyclo[2.2.2]octan-4-ylamino)methyl)-2H-pyrido[3,2-b][1,4]oxazin-3(4H)-one Hydrochloride]
0.016 µg/mL | Cl.O=C1COc2ccc(CNC34CCC(CCc5c(F)cnc6ccc(OCCCO)nc56)(CC3)OC4)nc2N1 [Example 35, 6-((1-(2-(3-Fluoro-6-(3-hydroxypropoxy)-1,5-naphthyridin-4-yl)ethyl)-2-oxabicyclo[2.2.2]octan-4-ylamino)methyl)-2H-pyrido[3,2-b][1,4]oxazin-3(4H)-one Hydrochloride]
0.063 µg/mL (≈ 0.111 µM) | O=C1COc2ccc(CNC34CCC(CCc5c(F)cnc6ccc(OCCCCCO)nc56)(CC3)OC4)nc2N1 [Example 37, 6-((1-(2-(3-Fluoro-6-(5-hydroxypentyloxy)-1,5-naphthyridin-4-yl)ethyl)-2-oxabicyclo[2.2.2]octan-4-ylamino)methyl)-2H-pyrido[3,2-b][1,4]oxazin-3(4H)-one]
0.25 µg/mL (≈ 0.466 µM) | NCCCOc1ccc2ncc(F)c(CCC34CCC(NCc5ccc6c(n5)NC(=O)CO6)(CC3)CO4)c2n1 [Example 38, 6-((1-(2-(6-(3-Aminopropoxy)-3-fluoro-1,5-naphthyridin-4-yl)ethyl)-2-oxabicyclo[2.2.2]octan-4-ylamino)methyl)-2H-pyrido[3,2-b][1,4]oxazin-3(4H)-one]
0.25 µg/mL (≈ 0.478 µM) | NCCOc1ccc2ncc(F)c(CCC34CCC(NCc5ccc6c(n5)NC(=O)CO6)(CC3)CO4)c2n1 [Example 40, 6-((1-(2-(6-(2-Aminoethoxy)-3-fluoro-1,5-naphthyridin-4-yl)ethyl)-2-oxabicyclo[2.2.2]octan-4-ylamino)methyl)-2H-pyrido[3,2-b][1,4]oxazin-3(4H)-one]
0.5 µg/mL (≈ 0.885 µM) | NCCCCCOc1ccc2ncc(F)c(CCC34CCC(NCc5ccc6c(n5)NC(=O)CO6)(CC3)CO4)c2n1 [Example 41, 6-((1-(2-(6-(5-Aminopentyloxy)-3-fluoro-1,5-naphthyridin-4-yl)ethyl)-2-oxabicyclo[2.2.2]octan-4-ylamino)methyl)-2H-pyrido[3,2-b][1,4]oxazin-3(4H)-one]
0.063 µg/mL (≈ 0.112 µM) | O=C1COc2ccc(CNC34CCC(CCc5c(F)cnc6ccc(OCC7(CO)CC7)nc56)(CC3)OC4)nc2N1 [Example 42, 6-((1-(2-(3-Fluoro-6-((1-(hydroxymethyl)cyclopropyl)methoxy)-1,5-naphthyridin-4-yl)ethyl)-2-oxabicyclo[2.2.2]octan-4-ylamino)methyl)-2H-pyrido[3,2-b][1,4]oxazin-3(4H)-one]
1 µg/mL (≈ 1.78 µM) | NCC1(COc2ccc3ncc(F)c(CCC45CCC(NCc6ccc7c(n6)NC(=O)CO7)(CC4)CO5)c3n2)CC1 [Example 43, 6-((1-(2-(6-((1-(Aminomethyl)cyclopropyl)methoxy)-3-fluoro-1,5-naphthyridin-4-yl)ethyl)-2-oxabicyclo[2.2.2]octan-4-ylamino)methyl)-2H-pyrido[3,2-b][1,4]oxazin-3(4H)-one]
2 µg/mL | COc1ccc2ncc(C#N)c(CCC34CCC(NCc5cc6ccccc6n(C)c5=O)(CC3)CO4)c2n1.Cl [Example 46, 6-Methoxy-4-(2-(4-((1-methyl-2-oxo-1,2-dihydroquinolin-3-yl)methylamino)-2-oxabicyclo[2.2.2]octan-1-yl)ethyl)-1,5-naphthyridine-3-carbonitrile Hydrochloride]
2 µg/mL (≈ 3.83 µM) | CON=C1COc2ccc(CNC34CCC(CCc5c(F)cnc6ccc(OC)nc56)(CC3)OC4)nc2N1 [Example 47, 6-((1-(2-(3-Fluoro-6-methoxy-1,5-naphthyridin-4-yl)ethyl)-2-oxabicyclo[2.2.2]octan-4-ylamino)methyl)-2H-pyrido[3,2-b][1,4]oxazin-3(4H)-one O-Methyl Oxime]
2 µg/mL (≈ 3.93 µM) | COc1ccc2ncc(F)c(CCC34CCC(NCc5ccc6c(n5)NC(=NO)CO6)(CC3)CO4)c2n1 [Example 48, 6-((1-(2-(3-Fluoro-6-methoxy-1,5-naphthyridin-4-yl)ethyl)-2-oxabicyclo[2.2.2]octan-4-ylamino)methyl)-2H-pyrido[3,2-b][1,4]oxazin-3(4H)-one Oxime]
1 µg/mL (≈ 1.98 µM) | COc1ccc2c(n1)c(CCC13CCC(NCc4ccc5c(n4)NC(=O)CO5)(CC1)CO3)cc(=O)n2C [Example 49, 6-(((1-(2-(6-Methoxy-1-methyl-2-oxo-1,2-dihydro-1,5-naphthyridin-4-yl)ethyl)-2-oxabicyclo[2.2.2]octan-4-yl)amino)methyl)-2H-pyrido[3,2-b][1,4]oxazin-3(4H)-one]
0.031 µg/mL (≈ 0.0611 µM) | COc1ccc2ncc(Cl)c(CCC34CCC(NCc5ccc6c(c5)NC(=O)CO6)(CC3)CC4)c2n1 [Example 56, 6-((4-(2-(3-Chloro-6-methoxy-1,5-naphthyridin-4-yl)ethyl)bicyclo[2.2.2]octan-1-ylamino)methyl)-2H-benzo[b][1,4]oxazin-3(4H)-one]
4 µg/mL (≈ 7.74 µM) | COc1ccc2nc(CNC34CCC(CCc5c(Cl)cnc6ccc(OC)nc56)(CC3)CC4)ccc2c1 [Example 57, 4-(2-(3-Chloro-6-methoxy-1,5-naphthyridin-4-yl)ethyl)-N-((6-methoxyquinolin-2-yl)methyl)bicyclo[2.2.2]octan-1-amine]
0.125 µg/mL (≈ 0.256 µM) | COc1ccc2ncc(Cl)c(CCC34CCC(NCc5ccc6cccnc6n5)(CC3)CC4)c2n1 [Example 58, N-((1,8-Naphthyridin-2-yl)methyl)-4-(2-(3-chloro-6-methoxy-1,5-naphthyridin-4-yl)ethyl)bicyclo[2.2.2]octan-1-amine]
0.016 µg/mL (≈ 0.0353 µM) | COc1ccc2ncc(F)c(CCC34CCC(NCc5ccc(C)c(F)c5)(CC3)CO4)c2n1 [Example 59, N-(3-Fluoro-4-methylbenzyl)-1-(2-(3-fluoro-6-methoxy-1,5-naphthyridin-4-yl)ethyl)-2-oxabicyclo[2.2.2]octan-4-amine]
8 µg/mL (≈ 17.9 µM) | COc1ccc2ncc(F)c(CCC34CCC(NCc5cccc(C#N)n5)(CC3)CO4)c2n1 [Example 60, 6-(((1-(2-(3-Fluoro-6-methoxy-1,5-naphthyridin-4-yl)ethyl)-2-oxabicyclo[2.2.2]octan-4-yl)amino)methyl)picolinonitrile]
0.063 µg/mL (≈ 0.131 µM) | COc1ccc2ncc(F)c(CCC34CCC(NCc5cc6c(cn5)OCCO6)(CC3)CO4)c2n1 [Example 61, N-((2,3-Dihydro-[1,4]dioxino[2,3-c]pyridin-7-yl)methyl)-1-(2-(3-fluoro-6-methoxy-1,5-naphthyridin-4-yl)ethyl)-2-oxabicyclo[2.2.2]octan-4-amine]
4 µg/mL (≈ 8.29 µM) | COc1ccc2ncc(F)c(CCC34CCC(NCc5cc(OC)c(OC)cn5)(CC3)CO4)c2n1 [Example 62, N-((4,5-Dimethoxypyridin-2-yl)methyl)-1-(2-(3-fluoro-6-methoxy-1,5-naphthyridin-4-yl)ethyl)-2-oxabicyclo[2.2.2]octan-4-amine]
0.25 µg/mL (≈ 0.509 µM) | COc1ccc2ncc(F)c(CCC34CCC(NCc5ccc(N6CCCC6)cn5)(CC3)CO4)c2n1 [Example 63, 1-(2-(3-Fluoro-6-methoxy-1,5-naphthyridin-4-yl)ethyl)-N-((5-(pyrrolidin-1-yl)pyridin-2-yl)methyl)-2-oxabicyclo[2.2.2]octan-4-amine]

Structure (SMILES) | MIC
O=C1COc2ccc(CNC34CCC(CCc5c(F)cnc6ccc(OCCCCO)nc56)(CC3)OC4)nc2N1 [Example 36, 6-((1-(2-(3-Fluoro-6-(4-hydroxybutoxy)-1,5-naphthyridin-4-yl)ethyl)-2-oxabicyclo[2.2.2]octan-4-ylamino)methyl)-2H-pyrido[3,2-b][1,4]oxazin-3(4H)-one] | 0.031 µg/mL (≈ 0.0562 µM)
NCCCCOc1ccc2ncc(F)c(CCC34CCC(NCc5ccc6c(n5)NC(=O)CO6)(CC3)CO4)c2n1 [Example 39, 6-((1-(2-(6-(4-Aminobutoxy)-3-fluoro-1,5-naphthyridin-4-yl)ethyl)-2-oxabicyclo[2.2.2]octan-4-ylamino)methyl)-2H-pyrido[3,2-b][1,4]oxazin-3(4H)-one] | 0.5 µg/mL (≈ 0.908 µM)
COc1ccc2ncc(C#N)c(CCC34CCC(NCc5ccc6c(n5)NC(=O)CO6)(CC3)CO4)c2n1 [Example 44, 6-Methoxy-4-(2-(4-((3-oxo-3,4-dihydro-2H-pyrido[3,2-b][1,4]oxazin-6-yl)methylamino)-2-oxabicyclo[2.2.2]octan-1-yl)ethyl)-1,5-naphthyridine-3-carbonitrile] | 0.016 µg/mL (≈ 0.032 µM)
COc1ccc2ncc(C#N)c(CCC34CCC(NCc5cc6c(cn5)OCCO6)(CC3)CO4)c2n1 [Example 45, 4-(2-(4-((2,3-Dihydro-[1,4]dioxino[2,3-c]pyridin-7-yl)methylamino)-2-oxabicyclo[2.2.2]octan-1-yl)ethyl)-6-methoxy-1,5-naphthyridine-3-carbonitrile Hydrochloride] | 0.031 µg/mL
COc1ccc2ncc(OC)c(CCC34CCC(NCc5ccc6c(n5)NC(=O)CO6)(CC3)CO4)c2n1 [Example 50, 6-[({1-[2-(3,6-Dimethoxy-1,5-naphthyridin-4-yl)ethyl]-2-oxabicyclo[2.2.2]oct-4-yl}amino)methyl]-2H-pyrido[3,2-b][1,4]oxazin-3(4H)-one] | 0.125 µg/mL (≈ 0.247 µM)
